# Source: PMC4838890, “Dynamic and flexible H3K9me3 bridging via HP1β dimerization establishes a plastic state of condensed chromatin” (Nature Communications, 2016)
# Entries after “also recorded” stand apart in the source; their conditions may differ.
# Legend:
# DNA fragment of 150 bp = experiment: Electrophoretic mobility shift assay (EMSA); assay type: binding; conditions: 150 bp DNA, 0, 3, 9 μM protein, 100 mM NaCl, 5 mM MgCl2, RT
# Procedure: 50 ng 150 bp DNA amplified from the backbone of pUC18 was incubated with 0, 3, 9 μM recombinant protein in 10 μl EMSA buffer (10 mM Tris-HCl (pH 8.0), 100 mM NaCl, 5 mM MgCl2) for 20 min at room temperature (RT). 2 μl 50% (v/v) glycerol was added and samples were loaded onto 6% native PAGE gels. After electrophoresis, DNA was visualized by staining with 1 × SYBR Gold/0.25 × TBE for 20 min at RT. Images were captured using a ChemiDoc MP Imaging System (Bio-Rad, München, Germany). […]
# crosslinking Fig. S6e,f nucleosomes […]
# crosslinking Fig. S7a,b nucleosomes
# EMSA Fig. 1g; Fig. 5c; n//a RT 100 5
# 1Preincubation of oligonucleosomes and h HP1β was performed at 4 °C . Measurements wer e carried out at the in dicated te mperature.
# 2in increments o f 0 .5 mM
# 3MgCl2 was added at the end of incubation to coprecipitate oligonucleosomes a nd bound hHP1β.
# [1] = test system: H3K9me0 and H3K9me3 chromatin; conditions: cited from earlier work
# From the text: In our model, modulation of the general chromatin-binding mode is brought about by varying sequences in the HR and NT domains as well as possibly their post-translational modification in other HP1 proteins (different variants, different species). We think that within these regions the overall charge but not a particular sequence is mainly dictating the chromatin-binding properties.
# H3K9me3 oligonucleosomes = experiment: Chromatin coprecipitation, H3K9me3 oligonucleosomes; assay type: binding, Xenopus laevis; conditions: chromatin coprecipitation, 5 mM MgCl2
# Procedure: (§1) 6.7 nM oligonucleosomes were incubated with 1 μM recombinant protein in 100 μl binding buffer (10 mM triethanolamine (pH 7.5), 150 mM NaCl, 5 mM MgCl2, 0.1 mM EDTA, 0.1% (v/v) Triton-X100) for 1 h on ice. Precipitated chromatin complexes were recovered by centrifugation at 16,100g for 30 min at 4°C. Pellets were washed once with 0.5 ml binding buffer and centrifuged for 15 min at 4 °C. Precipitated material was resuspended in 10 μl 1 × SDS loading buffer and boiled for 5 min before running on SDS–PAGE.
# (§2) Supplementary Table 1: Summary of conditions used in the different experiments of this study.
# (§3) experiment result modification template Temp. [NaCl] [MgCl2]
# (§4) chromatin Fig. 1e,f; Fig. S1f-h; H3K9me3 oligo- 4 150 5
# [2] = test system: mouse embryonic stem cells (mESC); experiment: ChIP-seq genome-wide correlation with H3K9me3; assay type: cell-based
# Procedure: For crosslink MNase ChIP of HP1β, 10^7 TT2 WT mouse ES cells were collected. Cells were crosslinked with 1% (v/v) formaldehyde in 10 ml of PBS for 10 min at RT, then quenched with 0.125 M glycine for 5 min. Cells were washed 1 × with PBS, and resuspended in 1 ml of EZ Nuclei Isolation Buffer (Sigma-Aldrich, Steinheim, Germany). The cytoplasmic supernatant was discarded and the pellet was flash frozen with liquid N2. […]
# A third of ChIP and input DNA (10–20 ng total) underwent end repair with T4 and Klenow, A-tailing and adaptor ligation. […] Resulting PCR was then purified on 2% EX Gel (Life Technologies, Carlsbad, USA) at the 200–700 bp range, and quantified on Qubit and Agilent Tapestation. […]
# Following published data sets were downloaded from NCBI/GEO for this study: SPR899601/ H3K9me3 SETDB1^f/− and SPR899602/H3K9me3 SETDB1^−/− both done with anti-H3K9me3 antibody (ab8898)[36]. Reads were processed and aligned to the mouse reference genome (mm9) using QuasR in R. Genomic alignment was performed twice using BOWTIE with the following parameters: --strata, --best and -m 1 or -m 99 to account for reads that map uniquely or up to 99 times in the mouse genome, respectively. For genome-wide comparisons, only uniquely mapping reads were used. Reads mapping up to 99 times were used for ERV analysis and genome browser visualization. […]
# [3] = test system: H3KC9me3 oligonucleosomes; experiment: Chromatin coprecipitation, H3KC9me3 oligonucleosomes; assay type: binding, Xenopus laevis
# Procedure: as §1, §2, §3, §4
substance,measurement,setting,value
hHP1α WT: recombinant human HP1α (GenBank BC006821) [reference compound],DNA binding,DNA fragment of 150 bp,high level of general DNA binding
same,discrimination between H3K9me0 and H3K9me3 chromatin,[1]; ref [12],limited discrimination between H3K9me0 and H3K9me3 chromatin
same,specificity for H3K9me3,H3K9me3 oligonucleosomes,much less specificity for H3K9me3 compared with hHP1β
mHP1β: endogenous mouse HP1β; sequence identical to human HP1β,H3K9me3 loss on SETDB1 deletion at mHP1β-enriched sites,"[2]; conditional SETDB1 deletion, H3K9me3 data ref [36]",the strongest loss of H3K9me3 occurred at sites enriched for mHP1β in WT cells
same,"Pearson's R, genome-wide correlation with H3K9me3","[2]; endogenous mHP1β, antibody-based ChIP-seq, 1 kb windows",0.77
Swi6: S. pombe HP1 protein,recovery with H3KC9me3 oligonucleosomes,"[3]; 6.7 nM oligonucleosomes, 1 μM protein, 150 mM NaCl, 5 mM MgCl2",specificity of Swi6 association with H3K9me0 and H3K9me3 oligonucleosomes increased significantly when the chromatin was more saturated; also recorded: recovered to a higher degree in H3K9me3 chromatin coprecipitation compared with hHP1β
same,molecules bound per nucleosome,[3]; saturating protein concentrations,approximately four
same,binding to unmodified chromatin,[1]; ref [29],more pronounced binding to unmodified chromatin
